Test results taken from PMC12860872, “Preclinical evaluation of DOTAGA.Glu.(FAPI)2 and DO3A.Glu.(FAPI)2 as theranostics with human dosimetry extrapolation to lutetium-177 and terbium-161 analogs” (European Journal of Nuclear Medicine and Molecular Imaging, 2025).

How the values were obtained:
PC3-mice = experiment: Dosimetry in mice (nTACs, effective half-lives, TIAC/g); assay type: in vivo, mouse; settings: for Effective half life: Tumor: nTACs
Method: (n = 3). The %I.A./g of tissue was calculated for liver, lungs, stomach, spleen, pancreas, kidneys, intestines, bone, muscle, salivary glands, heart wall, blood, tumor. To estimate the absolute activity in each source organ, the individual %I.A./g values were multiplied by the corresponding organ mass derived from the standard 25 g MOBY mouse phantom, yielding in the normalized source organ activities (nA) per time point and animal.
Following Cicone et al., the nA values for source organs were corrected to account for the fraction of administered activity sequestered by the tumor, as described in more detail in the dosimetry section of the supplemental data. According to the MIRD formalism, time-integrated activity coefficients (TIACs) were derived by integrating the normalized time-activity curves (nTACs), which were fitted using the bi-exponential functions. TIACs were calculated by fitting the nTACs with the bi-exponential functions and performing time integration in MATLAB. Additionally, mass-normalized TIACs (TIAC/g) were derived using organ masses from the standard 25 g MOBY mouse phantom (Supplemental data).
Biodistribution kinetics for [177Lu]Lu-DOTAGA.Glu.(FAPI)2 and [177Lu]Lu-DO3A.Glu.(FAPI)2 were assessed by ex vivo quantification of the accumulated radioactivity in source organs using a calibrated gamma counter at 4, 24, 48, 72, and 96 hours p.i. (n=3). The percentage of injected activity per gram of tissue (%I.A./g) was calculated, as described above, for a comprehensive panel of tissues, including liver, lungs, stomach, spleen, pancreas, kidneys, intestines, bone, muscle, salivary glands, heart wall, blood, and tumor. To estimate the absolute activity in each source organ, the individual %I.A./g values was multiplied by the corresponding organ mass derived from the standard 25 g MOBY mouse phantom, which provides high-resolution anatomical reference data for the murine models (28). […] The actual activity measurements were referred to the gamma counter measurement time (i.e. no physical decay correction to the administration time was applied). For each organ and time point, the mean nA was subsequently calculated across the three animals.
As outlined by Cicone et al., (1) the nA values for source organs were corrected to account for the fraction of administered activity sequestered by the tumor by redistributing the tumor nA (nAtumor) to organs according to the formula: […]
Where nAWB is the nA measured in the whole body. This adjustment was implemented to facilitate the extrapolation of absorbed dose data from mice to humans, considering that the tumor "sink effect" - prominent in murine models - is generally negligible in human subjects. In radiopharmaceutical dosimetry using tumor-bearing mice, the “tumor sink” effect refers to the phenomenon where large or highly avid tumors absorb a significant portion of the injected radiotracer, reducing its availability to normal organs. This can lead to artificially low uptake measurements in healthy tissues, which may not reflect what would occur in humans with smaller tumors or lower tumor burden. To correct for this, dosimetry calculations often include a "tumor sink correction" that adjusts normal organ uptake values to account for the radiotracer sequestered by the tumor, ensuring more accurate and clinically relevant dose estimates.
According to the MIRD formalism, for each source organ, time-integrated activity coefficients (TIACs) were derived by integrating the normalized time-activity curves (nTACs), which were fitted using the bi-exponential functions. The integration of the fitted nTACs was extended to infinity for organs in which the effective half-life of the slower bi-exponential component (tslow) was shorter than the physical half-life of lutetium-177 (tslow < tphys). […]

FAP+ CAFs = experiment: Externalization from CAFs; assay type: cell-based, human; settings: after 24 h at 37 °C
Method: For receptor saturation studies, FAP^+ CAFs were incubated with 0.1 to 10 nM of the radioligands. For internalization studies, approximately 2.5 pmol of the radioligands were added to CAFs followed by incubation for 15, 30, 60, 90, 120, 180 and 240 min for the ^68Ga-labeled or 30, 60, 120, 240 and 360 min for the ^177Lu-labeled radioligands at 37 °C, 5% CO2. For the externalization studies, approximately 2.5 pmol of the ^177Lu-labeled radioligands were added to CAFs followed by incubation for 2 h at 37 °C, 5% CO2. The amount of externalized activity was measured at 0, 10, 20, 30, 60, 120, 240, and 1440 min (Supplemental Data).
After the completion of the 2 hours of incubation, the medium was removed and CAF cells were washed with 1 mL of cold PBS (x2). The cells were then exposed to an acid wash with glycine buffer, as described above, to dissociate membrane-bound radioligand, and the fractions were collected. Fresh medium (1 mL/well) was added to the cells and were incubated at 37 °C. At different time points (10, 20, 30, 60, 120, 240 and 1440 minutes) the external medium was removed (followed by two washing steps with cold PBS). […] The radioactivity of the culture medium, the membrane-bound, the internalized and the externalized fractions were measured in a gamma-counter. The externalized fraction of radioactivity was expressed as the percentage of the total internalized amount.

[1] = PC3-mice, nTACs corrected for tumor sink

Liver TIAC/g, times higher than for [177Lu]Lu-DO3A.Glu.(FAPI)2 (PC3-mice; Mouse) [times]	TIAC/g Bones (PC3-mice; Mouse) [h/g]	TIAC/g Heart contents (PC3-mice; Mouse) [h/g]	TIAC/g Kidneys (PC3-mice; Mouse) [h/g]	TIAC/g Liver (PC3-mice; Mouse) [h/g]	TIAC/g Pancreas (PC3-mice; Mouse) [h/g]	TIAC/g Rest of the body (PC3-mice; Mouse) [h/g]	TIAC/g Salivary glands (PC3-mice; Mouse) [h/g]	TIAC/g Tumor (PC3-mice; Mouse) [h/g]	Effective half life: Tumor (PC3-mice; PC3-mice) [h]	Effective half life: Bones (PC3-mice; [1]) [h]	Effective half life: Heart content (PC3-mice; [1]) [h]	Effective half life: Kidney (PC3-mice; [1]) [h]	Effective half life: Lung (PC3-mice; [1]) [h]	Effective half life: Pancreas (PC3-mice; [1]) [h]	Effective half life: Salivary glands (PC3-mice; [1]) [h]	Effective half life: Small Intestine (PC3-mice; [1]) [h]	Effective half life: Liver (PC3-mice; [1]) [h]	SMILES	initially internalized activity released (FAP+ CAFs)
2.7	6.65 ± 0.39	0.11 ± 0.005	0.39 ± 0.02	9.65 ± 0.82	0.29 ± 0.01	10.75 ± 0.68	0.36 ± 0.01	1.19 ± 0.16	39.1 ± 1.1	30.9 ± 0.5	12.5 ± 0.1	50.1 ± 3.1	19.9 ± 0.6	40 ± 14.2	52.1 ± 14.9	25.4 ± 0.9	–	N#C[C@@H]1CC(F)(F)CN1C(=O)CNC(=O)c1ccnc2ccc(OCCCCNC(=O)CC[C@H](NC(=O)CCC(C(=O)O)N3CCN(CC(=O)[O-])CCN(CC(=O)[O-])CCN(CC(=O)[O-])CC3)C(=O)NCCCCOc3ccc4nccc(C(=O)NCC(=O)N5CC(F)(F)C[C@H]5C#N)c4c3)cc12.[177Lu+3] (stereo partly drawn) [[^177Lu]Lu-DOTAGA.Glu.(FAPI)2]	~ 40%
–	3.82 ± 0.12	0.12 ± 0.003	0.20 ± 0.01	3.47 ± 0.14	0.20 ± 0.01	10.77 ± 0.32	0.25 ± 0.02	1.61 ± 0.2	51 ± 12.6	23.3 ± 1.4	12.8 ± 0.4	22.3 ± 7.1	18.3 ± 4.4	14.1 ± 3.2	11.8 ± 5.9	16.2 ± 4.5	70.4 ± 2.9	N#C[C@@H]1CC(F)(F)CN1C(=O)CNC(=O)c1ccnc2ccc(OCCCCNC(=O)CC[C@H](NC(=O)CN3CCN(CC(=O)[O-])CCN(CC(=O)[O-])CCN(CC(=O)[O-])CC3)C(=O)NCCCCOc3ccc4nccc(C(=O)NCC(=O)N5CC(F)(F)C[C@H]5C#N)c4c3)cc12.[177Lu+3] [[^177Lu]Lu-DO3A.Glu.(FAPI)2]	~ 46%
